Structures can show the parent of a compound that is named as a salt.
Columns and labels:
[1] = molecular target: T1, p38alpha (Homo sapiens, UniProt Q16539); assay: P38Alpha enzyme inhibition assay (Alphascreen kinase activity assay); assay type: biochemical; conditions: 100 pM p38alpha, 250 μM ATP, 2 hours pre-incubation at 25° C., read-out: p38α inhibition (IC50 values)
T1 construct: purchased Invitrogen PV3304
How it was run: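 AlphaScreen read-out: after an EDTA stop, an anti-phospho-ATF2 antibody with Protein A acceptor and donor beads measured substrate phosphorylation. Compounds sat 2 h at 25°C with 100 pM p38α and 0.3 µg/ml ATF-2 fusion protein (pH 7.5, 1% DMSO) before 250 µM ATP was added for 1 h. IC50 from dose-response.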

[2] = tested on: LPS-stimulated TNFα release from PBMCs; assay: LPS-stimulated PBMC TNFα release assay; assay type: cell-based; conditions: inhibition of TNFα release, human PBMCs, LPS 10 ng/ml, 18 h, ELISA, read-out: p38α inhibition (IC50 values)
How it was run: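 TNFα in supernatants measured by ELISA after 18 h LPS (10 ng/ml) challenge of human PBMCs given 1 h compound pretreatment at 37 °C in medium with 1% FBS. Percent inhibition versus control release fitted to dose-response curves for IC50; at least three independent runs.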

T1 sequence (Q16539 whole entry): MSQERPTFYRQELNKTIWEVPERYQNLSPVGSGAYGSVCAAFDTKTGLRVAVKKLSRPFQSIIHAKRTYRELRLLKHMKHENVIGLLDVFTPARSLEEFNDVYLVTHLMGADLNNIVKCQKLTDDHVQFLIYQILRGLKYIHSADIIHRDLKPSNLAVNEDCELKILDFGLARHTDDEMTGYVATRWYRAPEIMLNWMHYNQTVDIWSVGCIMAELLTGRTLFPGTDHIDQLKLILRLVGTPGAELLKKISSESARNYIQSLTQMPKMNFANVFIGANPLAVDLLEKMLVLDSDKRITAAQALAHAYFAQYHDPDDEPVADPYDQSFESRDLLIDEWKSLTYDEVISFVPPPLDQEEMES

Structure (SMILES)	IC50 [1]	IC50 [2]
Cc1ccc(-n2nc(C(C)(C)C)cc2NC(=O)N[C@H]2CC[C@H](Oc3ccc4nnc([C@@H]5CCCN5C)n4c3)c3ccccc32)cc1 [Example 72, 1-(5-tert-Butyl-2-p-tolyl-2H-pyrazol-3-yl)-3-{(1S,4S)-4-[3-((S)-1-methyl-pyrrolidin-2-yl)-[1,2,4]triazolo[4,3-a]pyridin-6-yloxy]-1,2,3,4-tetrahydro-naphthalen-1-yl}-urea]	< 10 nM	< 10 nM
CN1CCC[C@H]1c1nnc2ccc(O[C@@H]3CC[C@H](NC(=O)Nc4cc(C(C)(C)C)nn4-c4ccc(O)cc4)c4ccccc43)cn12 [Example 73, 1-[5-tert-Butyl-2-(4-hydroxy-phenyl)-2H-pyrazol-3-yl]-3-{(1S,4R)-4-[3-((S)-1-methyl-pyrrolidin-2-yl)-[1,2,4]triazolo[4,3-a]pyridin-6-yloxy]-1,2,3,4-tetrahydro-naphthalen-1-yl}-urea]	< 10 nM	< 10 nM
Cc1ccc(-n2nc(C(C)(C)C)cc2NC(=O)N[C@H]2CC[C@@H](Oc3ccc4nnc(N5CCC(C(C)(C)O)CC5)n4c3)c3ccccc32)cc1 [Example 74, 1-(5-tert-Butyl-2-p-tolyl-2H-pyrazol-3-yl)-3-((1S,4R)-4-{3-[4-(1-hydroxy-1-methyl-ethyl)-piperidin-1-yl]-[1,2,4]triazolo[4,3-a]pyridin-6-yloxy}-1,2,3,4-tetrahydro-naphthalen-1-yl)-urea]	< 10 nM	< 10 nM
Cc1ccc(-n2nc(C(C)(C)C)cc2NC(=O)N[C@H]2CC[C@@H](Oc3ccc4nnc(N5CCCC5)n4c3)c3ccccc32)cc1 [Example 75, 1-(5-tert-Butyl-2-p-tolyl-2H-pyrazol-3-yl)-3-[(1S,4R)-4-(3-pyrrolidin-1-yl-[1,2,4]triazolo[4,3-a]pyridin-6-yloxy)-1,2,3,4-tetrahydro-naphthalen-1-yl]-urea]	< 10 nM	< 10 nM
Cc1ccc(-n2nc(C(C)(C)C)cc2NC(=O)N[C@H]2CC[C@@H](Oc3ccc4nnc(C(C)(C)N(C)C)n4c3)c3ccccc32)cc1 [Example 76, 1-(5-tert-Butyl-2-p-tolyl-2H-pyrazol-3-yl)-3-{(1S,4R)-4-[3-(1-dimethylamino-1-methyl-ethyl)-[1,2,4]triazolo[4,3-a]pyridin-6-yloxy]-1,2,3,4-tetrahydro-naphthalen-1-yl}-urea partial formate salt]	< 10 nM	< 10 nM
Cc1ccc(-n2nc(C(C)(C)C)cc2NC(=O)N[C@H]2CC[C@@H](Oc3ccc4nnc(N5CCC[C@@H](CO)C5)n4c3)c3ccccc32)cc1 [Example 77, 1-(5-tert-Butyl-2-p-tolyl-2H-pyrazol-3-yl)-3-{(1S,4R)-4-[3-((R)-3-hydroxymethyl-piperidin-1-yl)-[1,2,4]triazolo[4,3-a]pyridin-6-yloxy]-1,2,3,4-tetrahydro-naphthalen-1-yl}-urea]	< 10 nM	< 10 nM
Cc1ccc(-n2nc(C(C)(C)C)cc2NC(=O)N[C@H]2CC[C@@H](Oc3ccc4nnc(N5CCC[C@H](CO)C5)n4c3)c3ccccc32)cc1 [Example 78, 1-(5-tert-Butyl-2-p-tolyl-2H-pyrazol-3-yl)-3-{(1S,4R)-4-[3-((S)-3-hydroxymethyl-piperidin-1-yl)-[1,2,4]triazolo[4,3-a]pyridin-6-yloxy]-1,2,3,4-tetrahydro-naphthalen-1-yl}-urea]	< 10 nM	< 10 nM
Cc1ccc(-n2nc(C(C)(C)C)cc2NC(=O)N[C@H]2CC[C@@H](Oc3ccc4nnc(N5CCC(C)(O)CC5)n4c3)c3ccccc32)cc1 [Example 79, 1-(5-tert-Butyl-2-p-tolyl-2H-pyrazol-3-yl)-3-{(1S,4R)-4-[3-(4-hydroxy-4-methyl-piperidin-1-yl)-[1,2,4]triazolo[4,3-a]pyridin-6-yloxy]-1,2,3,4-tetrahydro-naphthalen-1-yl}-urea]	< 10 nM	< 10 nM
Cc1ccc(-n2nc(C(C)(C)C)cc2NC(=O)N[C@H]2CC[C@@H](Oc3ccc4nnc(C(C)(C)N5CCCC5)n4c3)c3ccccc32)cc1 [Example 80, 1-(5-tert-Butyl-2-p-tolyl-2H-pyrazol-3-yl)-3-{(1S,4R)-4-[3-(1-methyl-1-pyrrolidin-1-yl-ethyl)-[1,2,4]triazolo[4,3-a]pyridin-6-yloxy]-1,2,3,4-tetrahydro-naphthalen-1-yl}-urea]	< 10 nM	< 10 nM
Cc1ccc(-n2nc(C(C)(C)C)cc2NC(=O)N[C@H]2CC[C@@H](Oc3ccc4nnc(N5CCCC[C@@H]5C)n4c3)c3ccccc32)cc1 [Example 81, 1-(5-tert-Butyl-2-p-tolyl-2H-pyrazol-3-yl)-3-{(1S,4R)-4-[3-((S)-2-methyl-piperidin-1-yl)-[1,2,4]triazolo[4,3-a]pyridin-6-yloxy]-1,2,3,4-tetrahydro-naphthalen-1-yl}-urea]	< 10 nM	< 10 nM
Cc1ccc(-n2nc(C(C)(C)C)cc2NC(=O)N[C@H]2CC[C@@H](Oc3ccc4nnc(N5CCCC[C@H]5C)n4c3)c3ccccc32)cc1 [Example 82, 1-(5-tert-Butyl-2-p-tolyl-2H-pyrazol-3-yl)-3-{(1S,4R)-4-[3-((R)-2-methyl-piperidin-1-yl)-[1,2,4]triazolo[4,3-a]pyridin-6-yloxy]-1,2,3,4-tetrahydro-naphthalen-1-yl}-urea]	< 10 nM	< 10 nM
Cc1ccc(-n2nc(C(C)(C)C)cc2NC(=O)N[C@H]2CC[C@@H](Oc3ccc4nnc([C@H]5COCCN5C)n4c3)c3ccccc32)cc1 [Example 83, 1-(5-tert-Butyl-2-p-tolyl-2H-pyrazol-3-yl)-3-{(1S,4R)-4-[3-((S)-4-methyl-morpholin-3-yl)-[1,2,4]triazolo[4,3-a]pyridin-6-yloxy]-1,2,3,4-tetrahydro-naphthalen-1-yl}-urea, partial formate salt]	< 10 nM	< 10 nM
Cc1ccc(-n2nc(C(C)(C)C)cc2NC(=O)N[C@H]2CC[C@@H](Oc3ccc4nnc([C@@H]5CCCN5CCCO)n4c3)c3ccccc32)cc1 [Example 84, 1-(5-tert-Butyl-2-p-tolyl-2H-pyrazol-3-yl)-3-((1S,4R)-4-{3-[(S)-1-(3-hydroxy-propyl)-pyrrolidin-2-yl]-[1,2,4]triazolo[4,3-a]pyridin-6-yloxy}-1,2,3,4-tetrahydro-naphthalen-1-yl)-urea]	< 10 nM	< 10 nM
Cc1ccc(-n2nc(C(C)(C)C)cc2NC(=O)N[C@H]2CC[C@@H](Oc3ccc4nnc([C@]5(CO)CCCN5C)n4c3)c3ccccc32)cc1 [Example 85, 1-(5-tert-Butyl-2-p-tolyl-2H-pyrazol-3-yl)-3-{(1S,4R)-4-[3-((S)-2-hydroxymethyl-1-methyl-pyrrolidin-2-yl)-[1,2,4]triazolo[4,3-a]pyridin-6-yloxy]-1,2,3,4-tetrahydro-naphthalen-1-yl}-urea]	< 10 nM	< 10 nM
Cc1ccc(-n2nc(C(C)(C)C)cc2NC(=O)N[C@H]2CC[C@@H](Oc3ccc4nnc(C5CN(C)CCN5C)n4c3)c3ccccc32)cc1 (stereo partly drawn) [Example 86, 1-(5-tert-Butyl-2-p-tolyl-2H-pyrazol-3-yl)-3-{(1S,4R)-4-[3-(1,4-dimethyl-piperazin-2-yl)-[1,2,4]triazolo[4,3-a]pyridin-6-yloxy]-1,2,3,4-tetrahydro-naphthalen-1-yl}-urea formate salt]	< 10 nM	< 10 nM
Cc1ccc(-n2nc(C(C)(C)C)cc2NC(=O)N[C@H]2CC[C@@H](Oc3ccc4nnc([C@@H]5CC(C)(C)CN5C)n4c3)c3ccccc32)cc1 [Example 87, 1-(5-tert-Butyl-2-p-tolyl-2H-pyrazol-3-yl)-3-{(1S,4R)-4-[3-((S)-1,4,4-trimethyl-pyrrolidin-2-yl)-[1,2,4]triazolo[4,3a]pyridin-6-yloxy]-1,2,3,4-tetrahydro-naphthalen-1-yl}-urea]	< 10 nM	< 10 nM
Cc1ccc(-n2nc(C(C)(C)C)cc2NC(=O)N[C@H]2CC[C@@H](Oc3ccc4nnc([C@H]5CCCN(C)C5)n4c3)c3ccccc32)cc1 [Example 88, 1-(5-tert-Butyl-2-p-tolyl-2H-pyrazol-3-yl)-3-{(1S,4R)-4-[3-((S)-1-methyl-piperidin-3-yl)-[1,2,4]triazolo[4,3-a]pyridin-6-yloxy]-1,2,3,4-tetrahydro-naphthalen-1-yl}-urea]	< 10 nM	< 10 nM
Cc1ccc(-n2nc(C(C)(C)C)cc2NC(=O)N[C@H]2CC[C@@H](Oc3ccc4nnc([C@@H]5CCCN(C)C5)n4c3)c3ccccc32)cc1 [Example 89, 1-(5-tert-Butyl-2-p-tolyl-2H-pyrazol-3-yl)-3-{(1S,4R)-4-[3-((R)-1-methyl-piperidin-3-yl)-[1,2,4]triazolo[4,3-a]pyridin-6-yloxy]-1,2,3,4-tetrahydro-naphthalen-1-yl}-urea]	< 10 nM	< 10 nM
Cc1ccc(-n2nc(C(C)(C)C)cc2NC(=O)N[C@H]2CC[C@@H](Oc3ccc4nnc([C@@H]5CCN(C)C5)n4c3)c3ccccc32)cc1 [Example 90, 1-(5-tert-Butyl-2-p-tolyl-2H-pyrazol-3-yl)-3-{(1S,4R)-4-[3-((R)-1-methyl-pyrrolidin-3-yl)-[1,2,4]triazolo[4,3-a]pyridin-6-yloxy]-1,2,3,4-tetrahydro-naphthalen-1-yl}-urea]	< 10 nM	< 10 nM
Cc1ccc(-n2nc(C(C)(C)C)cc2NC(=O)N[C@H]2CC[C@@H](Oc3ccc4nnc(N5CC[C@H](CO)C5)n4c3)c3ccccc32)cc1 [Example 92, 1-(5-tert-Butyl-2-p-tolyl-2H-pyrazol-3-yl)-3-{(1S,4R)-4-[3-((S)-3-hydroxymethyl-pyrrolidin-1-yl)-[1,2,4]triazolo[4,3-a]pyridin-6-yloxy]-1,2,3,4-tetrahydro-naphthalen-1-yl}-urea]	< 10 nM	< 10 nM

Source: patent US9315503B2, “Kinase inhibitors” (CHIESI FARMACEUTICI S.p.A., priority 2011, dated 2016)
